Data reported in US20040170622A1, “Methods and compositions for modulating XBP-1 activity” (President and Fellows of Harvard College, priority 2002, published 2004).
Where a SMILES comes first, the peptide text is derived from it. The star is where a group is joined. Cbz = O=C(OCc1ccccc1)*

B1: XBP-1s: vector encoding only the spliced form of murine XBP-1, a protein of 371 aa (protein)
chain: MVVVAAAPSAATAAPKVLLLSGQPASGGRALPLMVPGPRAAGSEASGTPQARKRQRLTHLSPEEKALRRKLKNRVAAQTARDRKKARMSELEQQVVDLEEENHKLQLENQLLREKTHGLVVENQELRTRLGMDTLDPDEVPEVEAKGSGVRLVAGSAESAAGAGPVVTSPEHLPMDSDTVASSDSESDILLGILDKLDPVMFFKCPSPESASLEELPEVYPEGPSSLPASLSLSVGTSSAKLEAINELIRFDHVYTKPLVLEIPSETESQTNVVVKIEEAPLSSSEEDHPEFIVSVKKEPLEDDFIPELGISNLLSSSHCLRPPSCLLDAHSDCGYEGSPSPFSDMSSPLGTDHSWEDTFANELFPQLISV

Tests used:
[1] = test system: XBP-1u and XBP-1s proteins; assay: XBP-1u and XBP-1s protein levels in J558 cells (Western blot); assay type: cell-based
Protocol: (A) BiP and CHOP induction was examined by northern blot analysis after treating NIH3T3 or J558 myeloma cells with either MG-132 (20 μM), Tm (10 μg/ml) or both. Cells were pretreated with MG-132 for 1 hr and then further treated with Tm for 4 hrs. Ethidium bromide staining of the gel is shown at the bottom. (B) Inhibition of caspase-12 processing by proteasome inhibitors. Processing of full-length caspase-12 was examined by Western blotting in J558 myeloma cells treated with thapsigargin (1 μM) or PIs (20 μM) during the indicated time periods. (C) Alteration in the ratio of XBP-1 protein species in J558 cells were treated with increasing amounts of MG-132 for 16 hrs. Cells undergoing apoptosis were counted by Annexin V staining. (D) Time course of the XBP-1s to XBP-1u shift. Cells were treated with MG-132 (1 μM) for the indicated times and XBP-1u and spliced protein levels and cell death determined. (E) Alteration in the ratio of XBP-1 species in the MM.1s human myeloma line. Cells were treated with PS-341 (8 nM) in a time course analysis and XBP-1 protein species quantified.
Cells were lysed in RIPA buffer (50 mM Tris pH 7.4, 150 mM NaCl, 1 mM EDTA, 1% Triton X-100, 1% sodium deoxycholate, 0.1% SDS) and lysates subjected to SDS-PAGE and transferred to Hybond P membrane (Amersham-Pharmacia, Piscataway, N.J.). […] HeLa cells were cotransfected with XBP-1u and His-tagged ubiquitin expression plasmids (pMT 107, D. Bohmann, EMBL, Germany) by using the Lipofectamine-2000 reagent (Invitrogen, Carlsbad, Calif.). […] Degradation rates of XBP-1u and XBP-1s proteins were determined by pulse labeling J558 cells with ^35S Met/Cys for 1 hr and chasing for the indicated times.

XBP-1^−/− B cells = assay: Ig production by retrovirally transduced XBP-1-/- primary B cells (ELISA); assay type: cell-based, mouse; settings: LPS 10 μg/ml 72 h
Protocol: Assays to measure immunoglobulin or cytokine levels in culture supernatants were performed as described (e.g., Hodge et al., 1996 Immunity. 4:397-405 or Science. 1996 274:1903-5).
The XBP-1 cDNAs for the unspliced (XBP-1u/s) and the spliced (XBP-1s) forms were PCR-amplified from the total RNA of untreated and tunicamycin treated NIH3T3 cells, respectively, with a primer set (5′-[…]-3′ (SEQ ID NO: 7) and 5′-[…]-3′) (SEQ ID NO: 8). XBP-1u form was generated by a PCR-based mutagenesis from XBP-unspliced/s cDNA so that the two G residues at position 532 and 535 were changed to A without changing amino acid sequences in the XBP-1u open reading frame. Numbers are based on the sequences from gene bank database (NM_013842 [gi:13775155]). These XBP-1 cDNAs were inserted into the GFP-RV retroviral vector by using blunt end ligation (Sambrook et al., 1989). EFFECTENE transfection (Quiagen) was used to introduce the DNA into the Phoenix cell line as described by manufacturer (e.g., Reimold et al., 2001 Nature. 412:300-7 or Int Immunol. 2001 13:241-8). Viral supernatants were harvested after 48 hours and frozen at −80° C. for later use. B cells were purified from mouse spleens using CD43 depletion or positive selection with B220+ magnetic beads as described by the manufacturer (MidiMacs, Miltenyi Biotech). B cell purity was generally near 95% as confirmed by flow cytometry. The B cells (10^6 cells /ml) were then activated in culture with LPS 10 μg/ml and F (ab′)2 anti-IgM (5 μg/ml Southern Biotechnology Associates Inc.) for 24 hours. The 1 ml of activated B cells (10^6 cells/ml) were mixed with 4 μg of polybrene and 1 ml of virus-containing supernatant and spun at 1000 g for 45 minutes at 24° C. Cells were incubated for 24-36 h at 37° C. and then GFP+ cells were flow sorted and returned to culture with and without stimulation.
The effects of these three different forms of XBP-1 on Ig secretion were compared in wild type and XBP-1^−/− B cells. In vitro activated splenic B cells were transduced using retroviruses expressing bicistronic mRNA encoding XBP-1u/s, XBP-1s, XBP-1u or control GFP. In FIGS. 5(A) and (B) purified B cells from wt and XBP-1^−/− mice were activated in culture with LPS 10 μg/ml and F (ab′)2 anti-IgM (5 μg/ml) for 24 hours. Retroviral transduction with GFP alone (GFP-Rv), XBP-1u/s (XBP-1u/s GFP Rv), XBP-1s (XBP-1s GFP Rv) or XBP-1u (XBP-1u GFP Rv) of activated B cells was performed. Cells were incubated for 24-36 h at 37° C. and then GFP+ cells were flow sorted and then returned to culture with LPS stimulation (10 μg/ml) for 72 h. IgM panel(A) and IgG2b panel (B) production analyzed by ELISA from culture supernatants of stimulated B cells. Experiments were done at least three times and standard deviation is shown.

spliced XBP-1 = assay: Inhibition of transactivation function of spliced XBP-1, luciferase in NIH 3T3 cells; assay type: cell-based; settings: NIH 3T3, 200 ng spliced XBP-1, 200 ng mutant
Protocol: Versions of XBP-1 with various deletions of the C terminal transcription activating domain (e.g., consisting of the N terminal 225, 188, or 136 amino acids of the spliced form of XBP-1) that expressed high levels of protein by western analysis were created. The proteins were tested for their ability to inhibit the transactivation function of spliced XBP-1. Both the 188 and 136 N terminal mutants were extremely potent inhibitors (effective at a 1:1 ratio) of the spliced XBP-1. NIH 3T3 cells expressing XBP-1uc constructs were transfected with 200 ng of spliced XBP-1, yielding a relative luciferase activity of 44.5. 200 ng of XBP-N188 lowered the luciferase level to 1.8 and 200 ng of XBP-N136 lowered the luciferase activity to 2.2.

Molecule	XBP-1s protein level, time course ([1]; J558, MG-132 1 μM)	onset of XBP-1u increase ([1]; J558, MG-132 1 μM)	time of XBP-1u peak ([1]; J558, MG-132 1 μM) [h]	XBP-1u accumulation and XBP-1s decrease ([1]; J558 cells, 16 hrs)	secretion of IgM compared to control cells (XBP-1^−/− B cells)	relative luciferase activity (spliced XBP-1)
CC(C)C[C@@H](C=O)NC(=O)[C@H](CC(C)C)NC(=O)[C@H](CC(C)C)NC(=O)OCc1ccccc1 [MG-132] (Cbz-Leu-Leu-Leu-aldehyde)	rapidly declined after 4 hours of treatment and was barely detectable by 16 hours	as early as one hour post treatment	8	striking accumulation of XBP-1 u and a concomitant decrease in XBP-1s proteins		
B1					approximately ten-fold	44.5
